Data reported in patent US20220017495A1, “CONJUGATES OF BIVALENT EVANS BLUE DYE DERIVATIVES AND METHODS OF USE” (THE UNITED STATES OF AMERICA, AS REPRESENTED BY THE …, priority 2019, published 2022).
Where a name gives a salt, the structure may show the parent alone.

How the values were obtained:
[1] = test system: blood glucose; test: Blood glucose monitoring in T2DM mice; type: in vivo, db/db mice
[2] = Optical properties: absorption, emission, quantum yield and quantum efficiency; type: physicochemical; set-up: ϵ600nm / ϵpeak: unit not given here; settings: for QE: QE=ε*QY; for Molar ϵ600nm / Molar ϵpeak: in M-1cm-1 (unit assumed); for QY600nm: relative, NtEB set as 1; for Extinction coefficient: as given in text (peak, BSA); for Absorption peak / Emission peak: in BSA
Procedure: The absorption and the emission spectra of N(tEB)2, NtEB and EB were measured in PBS, BSA and FBS buffers. […] The similar emission peaks of the three EB derivatives in BSA were recorded at 661, 652 and 660 nm, respectively.
Fluorescence brightness of each compound was further compared with equal molar amount of N(tEB)2, NtEB, or EB in the presence or absence of human serum albumin.
Quantum efficiency is a dye metric encompassing both the quantum yield and absorption coefficient (QE=ε*QY).

[3] = target: T1, human serum albumin (HSA) (Homo sapiens, UniProt P02768); test: Biolayer interferometry (BLI) binding to biotinylated HSA
T1 sequence (P02768 25-609): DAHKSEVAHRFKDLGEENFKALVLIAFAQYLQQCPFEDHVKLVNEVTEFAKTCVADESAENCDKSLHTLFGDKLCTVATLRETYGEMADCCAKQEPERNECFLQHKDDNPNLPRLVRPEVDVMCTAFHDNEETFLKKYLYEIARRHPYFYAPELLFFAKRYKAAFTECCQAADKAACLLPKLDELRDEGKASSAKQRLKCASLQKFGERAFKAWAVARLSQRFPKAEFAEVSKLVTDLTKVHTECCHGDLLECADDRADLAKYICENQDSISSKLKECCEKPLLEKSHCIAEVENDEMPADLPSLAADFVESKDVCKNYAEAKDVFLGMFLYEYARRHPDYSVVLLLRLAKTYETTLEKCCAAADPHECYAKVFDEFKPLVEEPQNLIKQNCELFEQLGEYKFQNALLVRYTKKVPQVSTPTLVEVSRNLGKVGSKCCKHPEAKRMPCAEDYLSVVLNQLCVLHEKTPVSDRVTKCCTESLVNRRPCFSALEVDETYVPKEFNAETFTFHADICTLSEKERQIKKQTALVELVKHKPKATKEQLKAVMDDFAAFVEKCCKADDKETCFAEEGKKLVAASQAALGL
Procedure: In this study, we used the streptavidin conjugated biosensors (Pall Fort6Bio LLC, CA). We preincubated the biosensors with biotinylated HSA (Abeam Inc., Cambridge, Mass.) for 10 minutes. After removing the unbound biotinylated HSA, the biosensors were washed for 1 minute. After blocking the spare biosensor, we added EZ-Link™ Sulfo-NHS-Biotin (Thermo Fisher Scientific, Rockford, Ill.) to each well and then removed it and washed the wells.
Association of a given dilution of a compound with the albumin-derivatized biosensor was measured for 600 seconds and then in turn, dissociation of the compound from the albumin measured for another 600 seconds. Data was analyzed using the OCTET Data Analysis software 7.0.

[4] = test system: U-87MG, UM-22B and INS-1 tumor mouse xenografts; test: PET tumor uptake and ex vivo biodistribution in tumor xenografts; set-up: species or system nude mice; settings: for Tumor retention compared with IgG: U-87MG xenografts
From the text: For each scan, regions of interest (ROIs) were drawn using vendor software (ASI Pro 5.2.4.0; Siemens Medical Solutions) on decay-corrected whole-body coronal images. […] These values were then divided by the administered activity to obtain (assuming a tissue density of 1 g/mL) an image-ROI-derived percentage injected dose per gram (% ID/g).
PET images were reconstructed without correction for attenuation or scattering using a three-dimensional ordered subsets expectation maximization algorithm.

[5] = target: T1, human serum albumin (HSA); test: Atomic force microscopy of complexes with HSA; set-up: purchased Abeam Inc., Cambridge, Mass; (so in the source); settings: molar ratio 1:10, 1:1 and 10:1 with HSA
Procedure: We performed atomic force microscopy (AFM) to study the morphological structures of the complex. […] Samples ([…]) were cast on freshly peeled mica substrate, followed by drying, rinsing, and dehumidifying. AFM was carried out in tapping mode in air on a PicoForce Multimode AFM (Bruker, CA) equipped with a NANOSCOPE V controller, a type E scanner head, and a sharpened TESP-SS (Bruker, CA) AFM cantilever. An inverted optical microscope (IX71, Olympus, Japan) was used to capture pictures. AFM images were then analyzed by NANOSCOPE Software (version 7.3-8.15, Bruker, CA). For quantification, 10 different fields of view in one image were selected to quantify the “dimer” and the “monomer”. The size and morphology of dimer and monomer was defined by ImageJ (NIH, MD), a public domain Java image processing program.

Row | Molecule | OD600nm ([2]; In BSA) | ODpeak ([2]; In BSA) | ϵ600nm ([2]; In BSA) | ϵpeak ([2]; In BSA) | Molar ϵ600nm ([2]; In BSA) | Molar ϵpeak ([2]; In BSA) | OD600nm ([2]; In FBS) | ODpeak ([2]; In FBS) | ϵ600nm ([2]; In FBS) | ϵpeak ([2]; In FBS) | Molar ϵ600nm ([2]; In FBS) | Molar ϵpeak ([2]; In FBS) | OD600nm ([2]; In PBS) | ODpeak ([2]; In PBS) | ϵ600nm ([2]; In PBS) | ϵpeak ([2]; In PBS) | Molar ϵ600nm ([2]; In PBS) | Molar ϵpeak ([2]; In PBS) | Absorption peak [2] [nm] | Emission peak [2] [nm] | other results
1 | exendin-4: exendin-4 peptide, a glucagon-like peptide-1 (GLP-1) agonist |  |  |  |  |  |  |  |  |  |  |  |  |  |  |  |  |  |  |  |  | Reduction of glucose level ([1]; 1 h p.i., normalized to baseline plasma glucose): approximately 50%; Glucose level at recovery ([1]; at 12 h): 389.67 ± 44.3 mg/dL; Effective time window (from 50% reduction of glucose level to rebound to the original level) ([1]; single subcutaneous injection): 10.3 h; Glucose recovery time ([1]; single subcutaneous injection): 12 h
2 | Cc1cc(-c2ccc(NC(=O)CN3CCN(CC(=O)O)CCN(CC(=O)Nc4ccc(-c5ccc(N=Nc6ccc7c(S(=O)(=O)O)cc(S(=O)(=O)O)c(N)c7c6O)c(C)c5)cc4C)CC3)c(C)c2)ccc1N=Nc1ccc2c(S(=O)(=O)O)cc(S(=O)(=O)O)c(N)c2c1O [N(tEB)2] | 0.1245 | 0.183 | 27.79 | 40.85 | 37553.09 | 55198.51 | 0.1561 | 0.1931 | 34.84 | 43.10 | 47084.63 | 58244.99 | 0.0987 | 0.1806 | 22.03 | 40.31 | 29771.00 | 54474.60 | 610 | 661 | QE improvement over NtEB [2]: 5 fold; Quantum yield enhancement over NtEB [2]: 2 fold; QE ([2]; In BSA): 78929.01; QY600nm ([2]; In BSA): 2.10; QE ([2]; In FBS): 98962.49; QY600nm ([2]; In FBS): 2.10; Extinction coefficient [2]: 55198 M⁻¹ cm⁻¹; Kd times lower than EB complex with albumin [3]: 2 times; Kd times lower than NtEB complex with albumin [3]: 43 times; Kon value [3]: 47100 M⁻¹ s⁻¹; koff value [3]: 0.10 s⁻¹; Kd ([3]; pH 7.4): 1.8 µM; Koff ([3]; pH 7.4): 0.1009 s⁻¹; Kon ([3]; pH 7.4): 4.7128; Tumor retention compared with IgG ([4]; 24 h p.i.): comparable; Tumor retention compared with IgG ([4]; 48 h p.i.): significantly higher; Tumor uptake compared with NtEB ([4]; ^64Cu labeled, all tested tumor models, 24 and/or 48 h p.i.): significantly improved; Dimerization of albumin (AFM) [5]: observed at all tested molar ratios
3 | Cc1cc(-c2ccc(NC(=O)CN3CCN(CC(=O)O)CCN(CC(=O)O)CC3)c(C)c2)ccc1N=Nc1ccc2c(S(=O)(=O)O)cc(S(=O)(=O)O)c(N)c2c1O [NtEB] | 0.0759 | 0.1108 | 18.98 | 27.70 | 15696.60 | 22914.15 | 0.0883 | 0.1132 | 22.08 | 28.30 | 18261.00 | 23410.48 | 0.0857 | 0.1533 | 21.43 | 38.33 | 17723.31 | 31703.42 | 550 | 652 | QE ([2]; In BSA): 15696.60; QY600nm ([2]; In BSA): 1; QE ([2]; In FBS): 18261.00; QY600nm ([2]; In FBS): 1; Extinction coefficient [2]: 22914 M⁻¹ cm⁻¹; Kd ([3]; pH 7.4): 79 µM; Koff ([3]; pH 7.4): 0.7947 s⁻¹; kon ([3]; pH 7.4): 13500 M⁻¹ s⁻¹; Dimerization of albumin (AFM) [5]: no apparent albumin dimers
4 | Cc1cc(-c2ccc(N=Nc3ccc4c(S(=O)(=O)O)cc(S(=O)(=O)O)c(N)c4c3O)c(C)c2)ccc1N=Nc1ccc2c(S(=O)(=O)O)cc(S(=O)(=O)O)c(N)c2c1O [EB, tetrasodium salt of 6,6′-{(3,3′-dimethyl[1,1′-biphenyl]-4,4′-diyl)bis[diazene-2,1-diyl]}bis(4-amino-5-hydroxynaphthalene-1,3-disulfonate)] | 0.905 | 0.9551 | 88.14 | 93.02 | 84683.69 | 89371.71 | 0.8414 | 0.9057 | 81.94 | 88.21 | 78732.44 | 84749.19 | 0.9906 | 0.9983 | 96.47 | 97.22 | 92693.55 | 93414.07 | 548 | 660 | 
